Data as given in ChEMBL document CHEMBL3244191, “Study of the structural requirements for dopa potentiation and oxotremorine antagonism by L-prolyl-L-leucylglycinamide” (J Med Chem, 1978).
The source made the active and inactive calls. The rule behind the calls is not given here. Square brackets hold non-standard residues; d marks the D form. Peptide text beside a SMILES is read from it. azaGly = NNC(=O)O; βAla = NCCC(=O)O

What was measured:
Type in all cases: functional, organism-based
Mus musculus [1] = experiment: Suppression of oxotremorine-induced tremor in ICR mouse at 20 mg/kg, ip pretreated for 1 hr followed by oxotremorine-challenge; parameters: dose 20 mg/kg
Mus musculus [2] = experiment: Potentiation of dl-DOPA-induced behavioral effects in ICR mouse assessed as moderate piloerection, salivation, marked increased motor activity and irritability at 10 mg/kg, ip administered 1 hr prior to dl-DOPA-challenge measured for 1 hr; parameters: dose 10 mg/kg
Mus musculus [3] = experiment: Potentiation of dl-DOPA-induced behavioral effects in ICR mouse assessed as moderate piloerection, salivation, marked increased motor activity and irritability at 2.5 mg/kg, ip administered 1 hr prior to dl-DOPA-challenge measured for 1 hr; parameters: dose 2.5 mg/kg
Mus musculus [4] = experiment: Potentiation of dl-DOPA-induced behavioral effects in ICR mouse assessed as slight piloerection, slight salivation and slight increased motor activity at 10 mg/kg, ip administered 1 hr prior to dl-DOPA-challenge measured for 1 hr; parameters: dose 10 mg/kg
Mus musculus [5] = experiment: Suppression of oxotremorine-induced tremor in ICR mouse at 1 mg/kg, ip pretreated for 1 hr followed by oxotremorine-challenge; parameters: dose 1 mg/kg
Mus musculus [6] = experiment: Potentiation of dl-DOPA-induced behavioral effects in ICR mouse assessed as marked piloerection, profuse salivation, marked increased irritability and reactivity, jumping, squeaking and aggressive fighting at 1 mg/kg, ip administered 1 hr prior to dl-DOPA-challenge measured for 1 hr; parameters: dose 1 mg/kg
Mus musculus [7] = experiment: Suppression of oxotremorine-induced tremor in ICR mouse at 4 mg/kg, ip pretreated for 1 hr followed by oxotremorine-challenge; parameters: dose 4 mg/kg
Mus musculus [8] = experiment: Potentiation of dl-DOPA-induced behavioral effects in ICR mouse assessed as marked piloerection, profuse salivation, marked increased irritability and reactivity, jumping, squeaking and aggressive fighting at 10 mg/kg, ip administered 1 hr prior to dl-DOPA-challenge measured for 1 hr; parameters: dose 10 mg/kg
Mus musculus [9] = experiment: Potentiation of dl-DOPA-induced behavioral effects in ICR mouse assessed as marked piloerection, profuse salivation, marked increased irritability and reactivity, jumping, squeaking and aggressive fighting at 0.1 mg/kg, ip administered 1 hr prior to dl-DOPA-challenge measured for 1 hr; parameters: dose 0.1 mg/kg
Mus musculus [10] = experiment: Suppression of oxotremorine-induced tremor in ICR mouse at 10 mg/kg, ip pretreated for 1 hr followed by oxotremorine-challenge; parameters: dose 10 mg/kg
Mus musculus [11] = experiment: Potentiation of dl-DOPA-induced behavioral effects in ICR mouse assessed as slight piloerection, slight salivation and slight increased motor activity at 2.5 mg/kg, ip administered 1 hr prior to dl-DOPA-challenge measured for 1 hr; parameters: dose 2.5 mg/kg

Structure (SMILES) | Activity (Mus musculus [1]) | Activity (Mus musculus [2]) | Activity (Mus musculus [4]) | also measured
CC(=O)CNC(=O)[C@H](CC(C)C)NC(=O)[C@@H]1CCCN1 | inactive | Active |  | Activity (Mus musculus [3]): Active
CC(C)C[C@H](NC(=O)[C@@H]1CCCN1)C(=O)NNC(N)=O (H-Pro-Leu-[azaGly]-NH2) | inactive |  | Active | 
CC(C)C[C@H](NC(=O)[C@@H]1CCCN1)C(=O)NCCC(N)=O (H-Pro-Leu-[βAla]-NH2) | inactive |  | Active | 
CC(C)C[C@H](NC(=O)[C@@H]1CCCN1)C(=O)N1CSC[C@@H]1C(N)=O | inactive |  | Active | 
CC(C)C[C@H](NC(=O)[C@@H]1CCCN1)C(=O)N1CCSC1C(N)=O (stereo in doubt; 9) | inactive |  | Active | 
CC(C)C[C@H](NC(=O)[C@@H]1CCCN1)C(=O)NCC(N)=O (H-Pro-Leu-Gly-NH2) | Active |  |  | Activity (Mus musculus [5]): inactive; Activity (Mus musculus [6]): Active; Activity (Mus musculus [7]): Active; Activity (Mus musculus [8]): Active; Activity (Mus musculus [9]): Active
CC(C)C[C@H](NC(=O)[C@H]1CSCN1)C(=O)NCC(N)=O | inactive |  | Active | Activity (Mus musculus [10]): inactive
CC(C)C[C@H](NC(=O)[C@@H]1CCCN1)C(=O)N1CCC[C@H]1C(N)=O (H-Pro-Leu-Pro-NH2) | Active |  | Active | Activity (Mus musculus [10]): inactive
CNC(=O)CNC(=O)[C@H](CC(C)C)NC(=O)[C@@H]1CCCN1 (H-Pro-Leu-Gly-NHMe) | inactive |  | Active | 
CC(C)C[C@H](NC(=O)[C@@H]1CCCN1)C(=O)N1CCSC1C(N)=O (single isomer, unassigned; (-)) | inactive | Active |  | Activity (Mus musculus [11]): Active
CC(C)C[C@H](NC(=O)C1CCCC1)C(=O)NCC(N)=O | inactive | Active |  | Activity (Mus musculus [11]): Active
CC(C)C[C@H](NC(=O)[C@@H]1CCCN1)C(=O)NCC#N | inactive | Active |  | Activity (Mus musculus [11]): Active
